Assay results taken from patent US11884647B2, “Compounds and methods for targeting pathogenic blood vessels” (THE REGENTS OF THE UNIVERSITY OF CALIFORNIA, priority 2019, dated 2024).

Key:
[1] = test system: tumor endothelial cells (LL/2 lung cancer tumor); experiment: Lung LL2 ex vivo model of tumor angiogenesis; format: cell-based, mouse; conditions: for cytotoxicity at 40 µM / cytotoxicity at 20 µM: Mus musculus, Endothelial cell, 48 h, read-out: Cell death; for Cell death: Lung LL2 ex vivo, drug treatment two days
Summary of the method: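 Read-out is live/dead fluorescence imaging (fluorescein diacetate green, propidium iodide red, 10 min at 37° C) at 2×, taken e.g. 48 h after drug addition. Fragments of mouse LL2 tumor are cultured in Matrigel with endothelial growth medium, usually 4 days, until new endothelial cells grow out, then treated.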

[2] = test system: tumor endothelial cells (CT26.CL25 colon cancer tumor); experiment: Colon CT26 ex vivo model of tumor angiogenesis; format: cell-based; conditions: Mus musculus, CT26, 48 h, read-out: Cell death
Summary of the method: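 Explant pieces of CT26 tumor (about 0.075 mm^3) were embedded in Matrigel and grown in endothelial growth medium at 37 °C for about 7 days until endothelial outgrowth appeared, then treated. Cell death was read about 48 h after drug addition by fluorescein diacetate (live) and propidium iodide (dead) staining with red/green imaging.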

SMILES	cytotoxicity at 40 µM [1] [%]	cytotoxicity at 40 µM [2] [%]	cytotoxicity at 20 µM [1] [%]	further results
COc1ccc(S(=O)(=O)c2cnc3ccc(OC(F)(F)F)cc3c2NN2CCN(C)CC2)cc1OC [compound 88, 3-((3,4-dimethoxyphenyl)sulfonyl)-N-(4-methylpiperazin-1-yl)-6-(trifluoromethoxy)quinolin-4-amine]	70	60		
COc1ccc(S(=O)(=O)c2cnc3ccc(OC(F)(F)F)cc3c2-n2cncn2)cc1OC [compound 89, 3-((3,4-dimethoxyphenyl)sulfonyl)-4-(1H-1,2,4-triazol-1-yl)-6-(trifluoromethoxy)quinoline]			100	cytotoxicity at 10 µM [2]: 100%
CN1CCN(Nc2c(S(=O)(=O)c3ccc(OC(F)(F)F)cc3)cnc3ccc(OC(F)(F)F)cc23)CC1 [compound 90, N-(4-methylpiperazin-1-yl)-6-(trifluoromethoxy)-3-((4-(trifluoromethoxy)phenyl)sulfonyl)quinolin-4-amine]		0		Cell death ([1]; Conc. 40 μm): 10%
O=S(=O)(c1ccc(OC(F)(F)F)cc1)c1cnc2ccc(OC(F)(F)F)cc2c1-n1cncn1 [compound 91, 4-(1H-1,2,4-triazol-1-yl)-6-(trifluoromethoxy)-3-((4-(trifluoromethoxy)phenyl)sulfonyl)quinoline]				Cell death ([1]; Conc. 20 μm): 80%; cytotoxicity at 10 µM [2]: 100%
CCCCOc1ccc(S(=O)(=O)c2cnc3ccc(OC(F)(F)F)cc3c2NN2CCN(C)CC2)cc1 [compound 92, 3-((4-butoxyphenyl)sulfonyl)-N-(4-methylpiperazin-1-yl)-6-(trifluoromethoxy)quinolin-4-amine]		0	10	
CCCCOc1ccc(S(=O)(=O)c2cnc3ccc(OC(F)(F)F)cc3c2-n2cncn2)cc1 [compound 93, 3-((4-butoxyphenyl)sulfonyl)-4-(1H-1,2,4-triazol-1-yl)-6-(trifluoromethoxy)quinoline]			100	cytotoxicity at 10 µM [2]: 100%
COc1ccc(S(=O)(=O)c2cnc3ccc([N+](=O)[O-])cc3c2NN2CCN(C)CC2)cc1 [compound 94, 3-((4-methoxyphenyl)sulfonyl)-N-(4-methylpiperazin-1-yl)-6-nitroquinolin-4-amine]	20	0		
CCc1ccc(S(=O)(=O)c2cnc3ccc(OC(F)(F)F)cc3c2NCCO)cc1 [compound 95, 2-((3-((4-ethylphenyl)sulfonyl)-6-(trifluoromethoxy)quinolin-4-yl)amino)ethan-1-ol]	10	0		
COc1ccc(S(=O)(=O)c2cnc3cc(OC)c(OC)cc3c2-n2cncn2)cc1OC [compound 96, 3-((3,4-dimethoxyphenyl)sulfonyl)-6,7-dimethoxy-4-(1H-1,2,4-triazol-1-yl)quinoline]			0	cytotoxicity at 10 µM [2]: 0%
COc1ccc(S(=O)(=O)c2cnc3ccc([N+](=O)[O-])cc3c2-n2cncn2)cc1 [compound 97, 3-((4-methoxyphenyl)sulfonyl)-6-nitro-4-(1H-1,2,4-triazol-1-yl)quinoline]			50	cytotoxicity at 10 µM [2]: 100%
COc1ccc(S(=O)(=O)c2cnc3ccc(CC#N)cc3c2-n2cncn2)cc1 [compound 98, 2-(3-((4-methoxyphenyl)sulfonyl)-4-(1H-1,2,4-triazol-1-yl)quinolin-6-yl)acetonitrile]			10	cytotoxicity at 10 µM [2]: 50%
COc1ccc(S(=O)(=O)c2cnc3ccc(CC#N)cc3c2NN2CCN(C)CC2)cc1 [compound 99, 2-(3-((4-methoxyphenyl)sulfonyl)-4-((4-methylpiperazin-1-yl)amino)quinolin-6-yl)acetonitrile]	10	0		
CCc1ccc(S(=O)(=O)c2cnc3ccc(OC(F)(F)F)cc3c2N2CCCN(CCN(CC)CC)CC2)cc1 [compound 100, N,N-diethyl-2-(4-(3-((4-ethylphenyl)sulfonyl)-6-(trifluoromethoxy)quinolin-4-yl)-1,4-diazepan-1-yl)ethan-1-amine]	100	100		
CCc1ccc(S(=O)(=O)c2cnc3ccc(OC(F)(F)F)cc3c2N2CCC(OCCN(CC)CC)CC2)cc1 [compound 101, N,N-diethyl-2-((1-(3-((4-ethylphenyl)sulfonyl)-6-(trifluoromethoxy)quinolin-4-yl)piperidin-4-yl)oxy)ethan-1-amine]				Cell death ([1]; Conc. 20 μm): 100%; cytotoxicity at 20 µM [2]: 50%
CCc1ccc(S(=O)(=O)c2cnc3ccc(OC(F)(F)F)cc3c2N2CCC(N3CCC(O)CC3)CC2)cc1 [compound 102, 1′-(3-((4-ethylphenyl)sulfonyl)-6-(trifluoromethoxy)quinolin-4-yl)-[1,4′-bipiperidin]-4-ol]		5		Cell death ([1]; Conc. 20 μm): 20%
CCc1ccc(S(=O)(=O)c2cnc3ccc(OC(F)(F)F)cc3c2-n2ccnn2)cc1 [compound 110, 3-((4-ethylphenyl)sulfonyl)-4-(1H-1,2,3-triazol-1-yl)-6-(trifluoromethoxy)quinoline]		10	95	

SMILES	cytotoxicity at 40 µM [1] [%]	cytotoxicity at 40 µM [2] [%]	cytotoxicity at 20 µM [1] [%]	further results
CCc1ccc(S(=O)(=O)c2cnc3ccc(OC(F)(F)F)cc3c2-n2nnc3ccccc32)cc1 [compound 112, 4-(1H-benzo[d][1,2,3]triazol-1-yl)-3-((4-ethylphenyl)sulfonyl)-6-(trifluoromethoxy)quinoline]		10	70	
CCCCOc1ccc2ncc(S(=O)(=O)c3ccc(OC)c(OC)c3)c(N3CCC(N4CCCCC4)CC3)c2c1 [compound 116, 4-([1,4′-bipiperidin]-1′-yl)-6-butoxy-3-((3,4-dimethoxyphenyl)sulfonyl)quinoline]			100	cytotoxicity at 20 µM [2]: 50%
CCc1ccc(S(=O)(=O)c2cnc3ccc(OC(F)(F)F)cc3c2-n2cnc(C)c2)cc1 [compound 117, 3-((4-ethylphenyl)sulfonyl)-4-(4-methyl-1H-imidazol-1-yl)-6-(trifluoromethoxy)quinoline]			100	cytotoxicity at 20 µM [2]: 100%
CCc1ccc(S(=O)(=O)c2cnc3ccc(OC(F)(F)F)cc3c2-n2ccnc2)cc1 [compound 118, 3-((4-ethylphenyl)sulfonyl)-4-(1H-imidazol-1-yl)-6-(trifluoromethoxy)quinoline]			100	cytotoxicity at 20 µM [2]: 100%
CCCCOc1ccc(S(=O)(=O)c2cnc3ccc(OC(F)(F)F)cc3c2N2CCC(N3CCCCC3)CC2)cc1 [compound 119, 4-([1,4′-bipiperidin]-1′-yl)-3-((4-butoxyphenyl)sulfonyl)-6-(trifluoromethoxy)quinoline]			100	cytotoxicity at 20 µM [2]: 50%
COc1ccc(S(=O)(=O)c2cnc3ccc(SC)cc3c2N2CCC(N3CCCCC3)CC2)cc1OC [compound 121, 4-([1,4′-bipiperidin]-1′-yl)-3-((3,4-dimethoxyphenyl)sulfonyl)-6-(methylthio)quinoline]	50	40		
CCCCOc1ccc(S(=O)(=O)c2cnc3ccc(OC(F)(F)F)cc3c2N2CCCN(C)CC2)cc1 [compound 151, 3-((4-butoxyphenyl)sulfonyl)-4-(4-methyl-1,4-diazepan-1-yl)-6-(trifluoromethoxy)quinoline]	100	100		
CCCCOc1ccc(S(=O)(=O)c2cnc3ccc(OC(F)(F)F)cc3c2N2CCC(N3CCC(O)CC3)CC2)cc1 [compound 152, 1′-(3-((4-butoxyphenyl)sulfonyl)-6-(trifluoromethoxy)quinolin-4-yl)-[1,4′-bipiperidin]-4-ol]		30	20	
COc1ccc(S(=O)(=O)c2cnc3ccc(SC)cc3c2N2CCCN(C)CC2)cc1OC [compound 154, 3-((3,4-dimethoxyphenyl)sulfonyl)-4-(4-methyl-1,4-diazepan-1-yl)-6-(methylthio)quinoline]	30	30		
CCCCN(CCCC)c1c(S(=O)(=O)c2ccc(OC)cc2)cnc2ccc(C(=O)OCC)cc12 [compound 155, ethyl 4-(dibutylamino)-3-((4-methoxyphenyl)sulfonyl)quinoline-6-carboxylate]		20		Cell death ([1]; Conc. 40 μm): 80%
CCOC(=O)c1ccc2ncc(S(=O)(=O)c3ccc(OC)cc3)c(N(CCO)CCO)c2c1 [compound 156, ethyl 4-(bis(2-hydroxyethyl)amino)-3-((4-methoxyphenyl)sulfonyl)quinoline-6-carboxylate]		0		Cell death ([1]; Conc. 40 μm): 30%
CCCCOc1ccc(S(=O)(=O)c2cnc3ccc(C(=O)OCC)cc3c2N2CCC(N3CCCCC3)CC2)cc1 [compound 157, ethyl 4-([1,4′-bipiperidin]-1′-yl)-3-((4-butoxyphenyl)sulfonyl)quinoline-6-carboxylate]	100	60		
CCCCOc1ccc(S(=O)(=O)c2cnc3ccc(C(=O)OCC)cc3c2N2CCCN(C)CC2)cc1 [compound 158, ethyl 3-((4-butoxyphenyl)sulfonyl)-4-(4-methyl-1,4-diazepan-1-yl)quinoline-6-carboxylate]	100	100		
CCCCOc1ccc(S(=O)(=O)c2cnc3ccc(SC)cc3c2N2CCC(N3CCCCC3)CC2)cc1 [compound 159, 4-([1,4′-bipiperidin]-1′-yl)-3-((4-butoxyphenyl)sulfonyl)-6-(methylthio)quinoline]	100	100		
CCCCOc1ccc(S(=O)(=O)c2cnc3ccc(SC)cc3c2N2CCCN(C)CC2)cc1 [compound 160, 3-((4-butoxyphenyl)sulfonyl)-4-(4-methyl-1,4-diazepan-1-yl)-6-(methylthio)quinoline]	100	100		
